This is an account of results in PubChem BioAssay (NCI).

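Interpolation was linear, between the two tested concentrations surrounding the appropriate level; five concentrations were tested over 48 hours in 96-well plates. The concentration for 50% growth inhibition is given as GI50. TGI is the concentration that stops growth completely.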

Some test systems named below: CAKI-1 renal; HCT-15 colon; NCI-H23 lung; RPMI-8226 leukemia; RXF 393 renal; SF-268 CNS; SK-OV-3 ovarian; SN12C renal; SW-620 colon; UO-31 renal.
Test in all cases: NCI tumour cell line growth inhibition, 48 h

For the compound `COc1ccc(Cn2cc3c(c2-c2ccccc2)CCc2cnoc2-3)cc1N`, the GI50 with CAKI-1 renal was 0.116 µM; in the test with HCT-15 colon, 0.15 µM; in the test with NCI-H23 lung it was 0.441 µM; in the test with RPMI-8226 leukemia it was 0.31 µM; with RXF 393 renal, 0.32 µM; with SF-268 CNS, 0.812 µM. Also, the GI50 with SK-OV-3 ovarian is 0.252 µM; in the test with SN12C renal it was 0.694 µM; in the test with SW-620 colon, 0.0779 µM; with UO-31 renal it was 0.967 µM. For the same compound, the TGI with CAKI-1 renal, in the test with HCT-15 colon, in the test on NCI-H23 lung, in the test on RXF 393 renal, in the test on SF-268 CNS and in the test with SK-OV-3 ovarian was greater than 100 µM throughout. Further, the TGI in the test with SN12C renal, in the test with SW-620 colon and with UO-31 renal was greater than 100 µM each time.
`O=C(CC(=O)c1cccc(Cl)c1)c1cccc(Cl)c1`: the GI50 was 1.61 µM in the test on CAKI-1 renal; 1.86 µM in the test on HCT-15 colon; 1.91 µM in the test on NCI-H23 lung; 1.45 µM in the test with RPMI-8226 leukemia; 3.69 µM with RXF 393 renal; 2.76 µM with SF-268 CNS. The GI50 is 3.85 µM in the test with SK-OV-3 ovarian, 2.38 µM with SN12C renal, 2.14 µM with SW-620 colon and 3.98 µM in the test with UO-31 renal. The TGI with CAKI-1 renal is 6.65 µM; in the test on HCT-15 colon it was greater than 100 µM; in the test on NCI-H23 lung, greater than 100 µM; with RPMI-8226 leukemia, greater than 100 µM; in the test with RXF 393 renal, greater than 100 µM; in the test on SF-268 CNS, greater than 100 µM. Besides, the TGI in the test with SK-OV-3 ovarian, with SN12C renal, in the test with SW-620 colon and in the test with UO-31 renal was greater than 100 µM throughout.
As to `Oc1[nH]c2ccccc2c1N=Nc1c(F)c(F)c(F)c(F)c1F`, the TGI in the test on CAKI-1 renal was greater than 64.3 µM; in the test on HCT-15 colon it was greater than 100 µM; with NCI-H23 lung, greater than 100 µM; with RPMI-8226 leukemia, 25.4 µM; with RXF 393 renal, greater than 100 µM; in the test on SF-268 CNS it was greater than 100 µM. Further, the TGI with SK-OV-3 ovarian is greater than 100 µM; in the test with SN12C renal, greater than 55.7 µM; in the test on SW-620 colon it was greater than 72.8 µM; with UO-31 renal it was greater than 91.8 µM.
`COc1ccc(C2C=C(c3ccc(Cl)cc3)N=C3SC=C(C)N32)c(Br)c1` (stereo not given): the GI50 in the test with CAKI-1 renal is 2.98 µM; in the test with HCT-15 colon, 2.42 µM; with NCI-H23 lung, 4.43 µM; with RPMI-8226 leukemia it was 2.18 µM; in the test with RXF 393 renal, 2.39 µM; with SF-268 CNS, 3.17 µM. Also, the GI50 is 3.57 µM in the test on SK-OV-3 ovarian, 3.23 µM with SN12C renal, 2.85 µM with SW-620 colon and 3.26 µM in the test on UO-31 renal. The TGI was found to be 12.4 µM in the test with CAKI-1 renal; 12.2 µM in the test with HCT-15 colon; 28.4 µM with NCI-H23 lung; 9.67 µM with RPMI-8226 leukemia; 9.59 µM with RXF 393 renal; 13.1 µM in the test on SF-268 CNS. The TGI with SK-OV-3 ovarian is 12.6 µM; in the test on SN12C renal, 15.1 µM; in the test on SW-620 colon it was 10.3 µM; with UO-31 renal, 15.4 µM.
In the case of `CC[N+](C)(CC)CC(C)(C)C(=O)/C=C/c1ccc(/C=C/C(=O)C(C)(C)C[N+](C)(CC)CC)cc1`, the TGI in the test with CAKI-1 renal, with HCT-15 colon, with NCI-H23 lung, in the test with RPMI-8226 leukemia, with RXF 393 renal and with SF-268 CNS was greater than 100 µM throughout. Moreover, the TGI in the test with SK-OV-3 ovarian, with SN12C renal, in the test with SW-620 colon and with UO-31 renal was greater than 100 µM each time.
Turning to `Clc1ccccc1C(Nc1ncccn1)Nc1ncccn1`, the TGI with CAKI-1 renal, with HCT-15 colon, in the test on NCI-H23 lung, with RPMI-8226 leukemia, in the test with RXF 393 renal and in the test with SF-268 CNS was greater than 100 µM throughout. Also, the TGI with SK-OV-3 ovarian, in the test on SN12C renal, with SW-620 colon and with UO-31 renal was greater than 100 µM each time.
With `O=C(Nc1ccccc1O)c1ccc(NS(=O)(=O)c2cccc3cccnc23)cc1`, the GI50 in the test with CAKI-1 renal is 0.998 µM; with HCT-15 colon, 2.08 µM; with NCI-H23 lung, 2.02 µM; in the test on RPMI-8226 leukemia it was 0.464 µM; in the test with RXF 393 renal, 1.72 µM; in the test with SF-268 CNS it was 1.54 µM. In addition, the GI50 was 1.32 µM with SK-OV-3 ovarian, 2.78 µM with SN12C renal, 0.81 µM in the test on SW-620 colon and 0.73 µM in the test with UO-31 renal. The TGI is 4.8 µM with CAKI-1 renal; 7.71 µM in the test with HCT-15 colon; 13.7 µM in the test on NCI-H23 lung; greater than 9.66 µM in the test on RPMI-8226 leukemia; 5.81 µM in the test on RXF 393 renal; 8.18 µM in the test on SF-268 CNS. In addition, the TGI is 6.17 µM with SK-OV-3 ovarian, greater than 19.7 µM in the test on SN12C renal, 4.88 µM with SW-620 colon and 4.14 µM with UO-31 renal.
Regarding `CCN(CC)CCn1[nH]c2c3ccc(=O)cc3sc3c(NCCN)ccc1c32`, the TGI with CAKI-1 renal is 11.5 µM; with HCT-15 colon, 16.7 µM; in the test on RPMI-8226 leukemia, 1.97 µM; in the test on RXF 393 renal, 3.43 µM; with SF-268 CNS it was greater than 100 µM; with SK-OV-3 ovarian, 3.74 µM. In addition, the TGI came to 8.15 µM in the test with SN12C renal, 4.77 µM in the test on SW-620 colon and 52.1 µM with UO-31 renal.
Regarding `CC(C)(C)OC(=O)c1cccnc1/C=N/O`, the TGI in the test with CAKI-1 renal, in the test on HCT-15 colon, with NCI-H23 lung, in the test on RXF 393 renal, in the test with SF-268 CNS and with SK-OV-3 ovarian was greater than 100 µM throughout. Moreover, the TGI with SN12C renal, in the test with SW-620 colon and in the test on UO-31 renal was greater than 100 µM throughout.
For the compound `Cc1nc2sccn2c1C(=O)NC(=O)Nc1ccc(Cl)cc1`, the TGI in the test with CAKI-1 renal, in the test with HCT-15 colon, with NCI-H23 lung, in the test on RPMI-8226 leukemia, in the test with RXF 393 renal and in the test on SF-268 CNS was greater than 100 µM throughout. Also, the TGI in the test with SN12C renal, in the test on SW-620 colon and in the test on UO-31 renal was greater than 100 µM throughout.
In the case of `CCOC(=O)C1([Se]c2ccccc2)CCCC1=O` (stereo not given), the TGI was greater than 100 µM with CAKI-1 renal; 25.9 µM in the test on HCT-15 colon; 33.4 µM with NCI-H23 lung; 55.4 µM in the test on RPMI-8226 leukemia; 21.3 µM in the test with RXF 393 renal; 27.4 µM with SF-268 CNS. Besides, the TGI in the test on SK-OV-3 ovarian was greater than 100 µM; with SN12C renal, 30.5 µM; with UO-31 renal it was 51.6 µM.
